The source of these data is publication PMC11973282, “RAS70 peptide targets multiforme glioblastoma by binding to the plasma membrane heat shock protein HSP70” (Frontiers in Oncology, 2025).

The structures appear in SMILES notation.

One data set relates to GL261 glioma. More on the design: species or system C57BL/6 mice. To be noted: mouse, in vivo. As for the experimental part: The animals were anesthetized with a combination of Zoletil 100 (Virbac, France) and Rometar (Bioveta, Czech Republic). Rat glioma C6 (2х10^6) and mice glioma GL261 (1х10^6) cells were injected intracranially into the area of nucl. caudatus dexter.
For evaluation of the tumor retention of the RAS70 peptide in GL261 glioma-bearing mice the animals following tumor cells injection were randomly assigned to the study groups (6 animals each) as follows (1): control group – PBS i.v. injection via tail vein (100 μL) (2); i.v. administration of […] peptide (100 μl, 2.5 mg/kg) (3); i.v. administration of NGL-RGD-sCy7.5 peptide (100 μl, 2.5 mg/kg) (4); i.v. administration of TKD-sCy7.5 peptide (100 μl, 2.5 mg/kg) (5); i.v. administration of […] peptide (100 μl, 2.5 mg/kg). Following clinical manifestation of the brain tumor progression in animals (3–4 weeks after intracranial tumor cells injection) peptides were i.v. injected and the peptides biodistribution was assessed employing IVIS in vivo Imaging System (PerkinElmer, USA). […]
Processing of the obtained luminescence images was performed using Living Image 4.7.4 firmware. The luminescence signals were read from the color maps of the obtained images by selecting the ROI contour (region of interest). […]

The next data set relates to normal brain tissues. As to the kind of experiment: Ex vivo staining of normal brain tissue from patients with epilepsy. Also on record: species or system human. To be noted: tissues obtained intraoperatively from patients with epilepsy (n=2). The protocol:
For evaluation of targeting properties of RAS70 peptide in the non-tumorous brain tissues patient-derived samples obtained intraoperatively from patients with drug-resistant epilepsy underwent temporal resection (n=2) were employed.
Small pieces of brain tissue (50-100 mm³) were taken from patients or animals during surgery. The resulting material was washed three times in a PBS solution at room temperature and then stained, gently shaking, for 1 hour with one of the following combinations of dyes: a mixture of Hoechst 33342 (0.1 μg/mL) [Invitrogen, USA], monoclonal antibodies against Hsp70 conjugated with FITC, and RAS70 conjugated with Cy5; a mixture of Hoechst 33342 (0.1 μg/mL), LumiTracker® Mito Green FM [Lumiprobe, Russia], and TKD/NGL-RGD/RAS70 conjugated with sCy5. […] Hoechst 33342 fluorescence was excited with a 405 nm laser and recorded in the range 410 to 550 nm; Hsp70-FITC and Mito Green fluorescence were excited with a 488 nm laser and recorded in the range 495 to 550 nm; and Cy5 fluorescence was excited with a 633 nm laser and recorded in the range 635 to 750 nm. […]
To detect peptide localization, the biopsy material was additionally stained with a mitochondrial marker MitoGreen and anti-Hsp70 antibodies (SPA-810). […] Additionally, we assessed the depth of the RAS70-sCy3/sCy5 penetration into the tumor tissues […]. […]

Turning to `CC(C)C[C@H](NC(=O)[C@H](CC(C)C)NC(=O)[C@H](CC(N)=O)NC(=O)[C@H](CC(N)=O)NC(=O)[C@H](CC(=O)O)NC(=O)[C@H](CCCCN)NC(=O)[C@@H](N)[C@@H](C)O)C(=O)NCC(=O)N[C@@H](CCCNC(=N)N)C(=O)N[C@@H](Cc1ccccc1)C(=O)N[C@@H](CCC(=O)O)C(=O)N[C@@H](CC(C)C)C(=O)N[C@@H](CO)C(=O)NCC(=O)NCCC(=O)N[C@@H](CCCNC(=N)N)C(=O)NCC(=O)N[C@@H](CC(=O)O)C(=O)O` [RAS70], the “presence in normal brain tissue of animals” value in the data set on GL261 glioma is “non-specific presence of the RAS70 in blood vessel but not in normal brain cells”. The “rank order of organ accumulation (biodistribution)” value in the data set on GL261 glioma (iv) is “kidney > liver > small intestine > lungs”. Moreover, the “localization in normal brain tissue” value in the data set on normal brain tissues was “no tissue-specific localization of RAS70 was detected”.
